Assay: xn = mol fraction of the nth substance listed
Settings: Liquid, Vibrating tube method, x1 = 0.33

C[N+](C)(C)CCO.[Cl-] [choline chloride] + OCCO
mass density [kg/m3]
Settings | 298.15 K | 303.15 K | 308.15 K | 313.15 K | 318.15 K | 323.15 K
100 kPa | 1117.4 | 1114.5 | 1111.6 | 1108.7 | 1105.9 | 1103
5000 kPa | 1119 | 1116.1 | 1113.2 | 1110.3 | 1107.5 | 1104.7
10000 kPa | 1120.6 | 1117.7 | 1114.8 | 1111.9 | 1109.1 | 1106.3
15000 kPa | 1122.1 | 1119.3 | 1116.4 | 1113.5 | 1110.7 | 1107.9
20000 kPa | 1123.6 | 1120.8 | 1117.9 | 1115.1 | 1112.3 | 1109.5
25000 kPa | 1125.1 | 1122.3 | 1119.5 | 1116.6 | 1113.8 | 1111
30000 kPa | 1126.6 | 1123.8 | 1121 | 1118.2 | 1115.4 | 1112.6
35000 kPa | 1128.1 | 1125.3 | 1122.5 | 1119.7 | 1116.9 | 1114.1
40000 kPa | 1129.6 | 1126.8 | 1124 | 1121.2 | 1118.4 | 1115.7
45000 kPa | 1131 | 1128.2 | 1125.5 | 1122.7 | 1119.9 | 1117.2
50000 kPa | 1132.4 | 1129.6 | 1126.9 | 1124.1 | 1121.4 | 1118.7
